According to ChEMBL document CHEMBL4196211, “In Vitro Mechanistic Study of the Anti-inflammatory Activity of a Quinoline Isolated from Spondias pinnata Bark” (J Nat Prod, 2018):
Calls of active or inactive are those of the source. No cut-off for these calls is given here.

Columns and labels:
RAW264.7 [1] = assay: Antiinflammatory activity against mouse RAW264.7 cells assessed as inhibition of LPS-induced nitrite production at 20 uM pretreated for 6 hrs followed by LPS stimulation measured after 24 hrs by […]; assay type: functional, cell-based
RAW264.7 [2] = assay: Antiinflammatory activity against mouse RAW264.7 cells assessed as inhibition of LPS-induced TNFalpha production at 20 uM pretreated for 6 hrs followed by LPS stimulation measured after 24 hrs by ELISA; assay type: functional, cell-based
RAW264.7 [3] = assay: Antiinflammatory activity against mouse RAW264.7 cells assessed as inhibition of LPS-induced IL-1beta production at 20 uM pretreated for 6 hrs followed by LPS stimulation measured after 24 hrs by ELISA; assay type: functional, cell-based
RAW264.7 [4] = assay: Antiinflammatory activity against mouse RAW264.7 cells assessed as inhibition of LPS-induced IL-6 production at 20 uM pretreated for 6 hrs followed by LPS stimulation measured after 24 hrs by ELISA; assay type: functional, cell-based
RAW264.7 [5] = assay: Inhibition of NF-kappaB in mouse RAW264.7 cells assessed as LPS-induced iNOS expression level at 50 uM pretreated for 6 hrs followed by LPS stimulation measured after 24 hrs by Western blot analysis (reference value: 5.69); assay type: cell-based
RAW264.7 [6] = assay: Inhibition of NF-kappaB in mouse RAW264.7 cells assessed as LPS-induced COX-2 expression level at 75 uM pretreated for 6 hrs followed by LPS stimulation measured after 24 hrs by Western blot analysis (reference value: 2.02); assay type: cell-based
Mus musculus [7] = organism: Mus musculus; assay: Effect on LPS-induced I-kappaB phosphorylation at 100 uM pretreated for 6 hrs followed by LPS stimulation measured after 2 hrs by Western blot analysis (reference value: 2.22)
RAW264.7 [8] = assay: Inhibition of LPS-induced I-kappaB phosphorylation in mouse RAW264.7 cells pretreated for 6 hrs followed by LPS stimulation measured after 2 hrs by Western blot analysis; assay type: cell-based
RAW264.7 [9] = assay: Antiinflammatory activity against mouse RAW264.7 cells assessed as inhibition of LPS-induced nitrite production at 100 uM pretreated for 6 hrs followed by LPS stimulation measured after 24 hrs by […]; assay type: functional, cell-based
RAW264.7 [10] = assay: Inhibition of NF-kappaB in mouse RAW264.7 cells assessed as reduction in LPS-induced IL-6 mRNA level at 50 to 100 uM by qRT-PCR analysis; assay type: cell-based
RAW264.7 [11] = assay: Inhibition of NF-kappaB in mouse RAW264.7 cells assessed as LPS-induced nuclear NF-kappaB level at 100 uM pretreated for 6 hrs followed by LPS stimulation measured after 2 hrs by Western blot analysis (reference value: 6.77); assay type: cell-based
Mus musculus [12] = organism: Mus musculus; assay: Effect on LPS-induced I-kappaB phosphorylation at 75 uM pretreated for 6 hrs followed by LPS stimulation measured after 2 hrs by Western blot analysis (reference value: 2.22)
RAW264.7 [13] = assay: Antiinflammatory activity against mouse RAW264.7 cells assessed as inhibition of LPS-induced IL-1beta production at 50 to 100 uM pretreated for 6 hrs followed by LPS stimulation measured after 24 hrs by ELISA; assay type: functional, cell-based
RAW264.7 [14] = assay: Inhibition of NF-kappaB in mouse RAW264.7 cells assessed as LPS-induced cytosolic NF-kappaB level at 50 uM pretreated for 6 hrs followed by LPS stimulation measured after 2 hrs by Western blot analysis (reference value: 0.13); assay type: cell-based
RAW264.7 [15] = assay: Effect on LPS-induced I-kappaB level in mouse RAW264.7 cells at 50 uM pretreated for 6 hrs followed by LPS stimulation measured after 2 hrs by Western blot analysis (reference value: 0.44); assay type: cell-based
RAW264.7 [16] = assay: Inhibition of NF-kappaB in mouse RAW264.7 cells assessed as LPS-induced iNOS expression level at 100 uM pretreated for 6 hrs followed by LPS stimulation measured after 24 hrs by Western blot analysis (reference value: 5.69); assay type: cell-based
RAW264.7 [17] = assay: Effect on beta-actin expression level in LPS-induced mouse RAW264.7 cells at 100 uM pretreated for 6 hrs followed by LPS stimulation measured after 2 hrs by Western blot analysis (reference value: 0.99); assay type: ADME, cell-based; settings: raw264.7, 2 h
RAW264.7 [18] = assay: Inhibition of NF-kappaB in mouse RAW264.7 cells assessed as reduction in LPS-induced TNFalpha mRNA level at 50 to 100 uM by qRT-PCR analysis; assay type: cell-based
RAW264.7 [19] = assay: Inhibition of NF-kappaB nuclear localization in LPS-induced mouse RAW264.7 cells at 50 to 100 uM pretreated for 6 hrs followed by LPS stimulation measured after 2 hrs by DAPI/FITC staining based laser scanning confocal microscopy; assay type: cell-based
RAW264.7 [20] = assay: Effect on beta-actin expression level in LPS-induced mouse RAW264.7 cells at 75 uM pretreated for 6 hrs followed by LPS stimulation measured after 24 hrs by Western blot analysis (reference value: 0.95); assay type: ADME, cell-based; settings: raw264.7, 24 h
RAW264.7 [21] = assay: Effect on LPS-induced I-kappaB level in mouse RAW264.7 cells at 100 uM pretreated for 6 hrs followed by LPS stimulation measured after 2 hrs by Western blot analysis (reference value: 0.44); assay type: cell-based
RAW264.7 [22] = assay: Antiinflammatory activity against mouse RAW264.7 cells assessed as inhibition of LPS-induced TNFalpha production at 100 uM pretreated for 6 hrs followed by LPS stimulation measured after 24 hrs by ELISA; assay type: functional, cell-based
Mus musculus [23] = organism: Mus musculus; assay: Effect on LPS-induced I-kappaB phosphorylation at 50 uM pretreated for 6 hrs followed by LPS stimulation measured after 2 hrs by Western blot analysis (reference value: 2.22)
RAW264.7 [24] = assay: Effect on beta-actin expression level in LPS-induced mouse RAW264.7 cells at 50 uM pretreated for 6 hrs followed by LPS stimulation measured after 24 hrs by Western blot analysis (reference value: 0.95); assay type: ADME, cell-based; settings: raw264.7, 24 h
RAW264.7 [25] = assay: Cytotoxicity against mouse RAW264.7 cells assessed as reduction in cell viability at 50 to 100 uM after 48 hrs by WST-1 assay; assay type: cell-based; settings: raw264.7, 48 h
RAW264.7 [26] = assay: Inhibition of NF-kappaB in mouse RAW264.7 cells assessed as LPS-induced COX-2 expression level at 100 uM pretreated for 6 hrs followed by LPS stimulation measured after 24 hrs by Western blot analysis (reference value: 2.02); assay type: cell-based
RAW264.7 [27] = assay: Inhibition of NF-kappaB in mouse RAW264.7 cells assessed as reduction in LPS-induced IL-1beta mRNA level at 50 to 100 uM by qRT-PCR analysis; assay type: cell-based
RAW264.7 [28] = assay: Inhibition of NF-kappaB in mouse RAW264.7 cells assessed as reduction in LPS-induced iNOS expression level pretreated for 6 hrs followed by LPS stimulation measured after 24 hrs by Western blot analysis; assay type: cell-based
RAW264.7 [29] = assay: Inhibition of NF-kappaB in mouse RAW264.7 cells assessed as LPS-induced cytosolic NF-kappaB level at 75 uM pretreated for 6 hrs followed by LPS stimulation measured after 2 hrs by Western blot analysis (reference value: 0.13); assay type: cell-based
RAW264.7 [30] = assay: Inhibition of NF-kappaB in mouse RAW264.7 cells assessed as reduction in LPS-induced COX-2 mRNA level at 50 to 100 uM by qRT-PCR analysis; assay type: cell-based
RAW264.7 [31] = assay: Effect on tubulin expression level in LPS-induced mouse RAW264.7 cells at 75 uM pretreated for 6 hrs followed by LPS stimulation measured after 2 hrs by Western blot analysis (reference value: 1.02); assay type: ADME, cell-based; settings: raw264.7, 2 h
RAW264.7 [32] = assay: Effect on beta-actin expression level in LPS-induced mouse RAW264.7 cells at 50 uM pretreated for 6 hrs followed by LPS stimulation measured after 2 hrs by Western blot analysis (reference value: 0.99); assay type: ADME, cell-based; settings: raw264.7, 2 h
RAW264.7 [33] = assay: Effect on beta-actin expression level in LPS-induced mouse RAW264.7 cells at 75 uM pretreated for 6 hrs followed by LPS stimulation measured after 2 hrs by Western blot analysis (reference value: 0.99); assay type: ADME, cell-based; settings: raw264.7, 2 h
RAW264.7 [34] = assay: Inhibition of NF-kappaB in mouse RAW264.7 cells assessed as LPS-induced nuclear NF-kappaB level at 50 uM pretreated for 6 hrs followed by LPS stimulation measured after 2 hrs by Western blot analysis (reference value: 6.77); assay type: cell-based
RAW264.7 [35] = assay: Effect on LPS-induced I-kappaB level in mouse RAW264.7 cells at 75 uM pretreated for 6 hrs followed by LPS stimulation measured after 2 hrs by Western blot analysis (reference value: 0.44); assay type: cell-based
RAW264.7 [36] = assay: Inhibition of NF-kappaB in mouse RAW264.7 cells assessed as LPS-induced COX-2 expression level at 50 uM pretreated for 6 hrs followed by LPS stimulation measured after 24 hrs by Western blot analysis (reference value: 2.02); assay type: cell-based
RAW264.7 [37] = assay: Effect on tubulin expression level in LPS-induced mouse RAW264.7 cells at 100 uM pretreated for 6 hrs followed by LPS stimulation measured after 2 hrs by Western blot analysis (reference value: 1.02); assay type: ADME, cell-based; settings: raw264.7, 2 h
RAW264.7 [38] = assay: Inhibition of NF-kappaB in mouse RAW264.7 cells assessed as reduction in LPS-induced iNOS mRNA level at 50 to 100 uM by qRT-PCR analysis; assay type: cell-based
RAW264.7 [39] = assay: Antiinflammatory activity against mouse RAW264.7 cells assessed as inhibition of LPS-induced intracellular ROS production at 50 to 100 uM pretreated for 12 hrs followed by LPS stimulation measured after 24 hrs by DCF-DA probe based flow cytometry; assay type: functional, cell-based
RAW264.7 [40] = assay: Effect on tubulin expression level in LPS-induced mouse RAW264.7 cells at 50 uM pretreated for 6 hrs followed by LPS stimulation measured after 2 hrs by Western blot analysis (reference value: 1.02); assay type: ADME, cell-based; settings: raw264.7, 2 h
RAW264.7 [41] = assay: Inhibition of NF-kappaB in mouse RAW264.7 cells assessed as LPS-induced cytosolic NF-kappaB level at 100 uM pretreated for 6 hrs followed by LPS stimulation measured after 2 hrs by Western blot analysis (reference value: 0.13); assay type: cell-based
RAW264.7 [42] = assay: Effect on beta-actin expression level in LPS-induced mouse RAW264.7 cells at 100 uM pretreated for 6 hrs followed by LPS stimulation measured after 24 hrs by Western blot analysis (reference value: 0.95); assay type: ADME, cell-based; settings: raw264.7, 24 h
RAW264.7 [43] = assay: Inhibition of NF-kappaB in mouse RAW264.7 cells assessed as LPS-induced nuclear NF-kappaB level at 75 uM pretreated for 6 hrs followed by LPS stimulation measured after 2 hrs by Western blot analysis (reference value: 6.77); assay type: cell-based
RAW264.7 [44] = assay: Inhibition of NF-kappaB in mouse RAW264.7 cells assessed as LPS-induced iNOS expression level at 70 uM pretreated for 6 hrs followed by LPS stimulation measured after 24 hrs by Western blot analysis (reference value: 5.69); assay type: cell-based
RAW264.7 [45] = assay: Antiinflammatory activity against mouse RAW264.7 cells assessed as inhibition of LPS-induced IL-6 production at 50 to 100 uM pretreated for 6 hrs followed by LPS stimulation measured after 24 hrs by ELISA; assay type: functional, cell-based

Structure (SMILES): C[C@@H]1C[C@H]2[C@@H]3CCC4=CC(=O)C=C[C@]4(C)[C@@]3(F)[C@@H](O)C[C@]2(C)[C@@]1(O)C(=O)CO
- inhibition (RAW264.7 [1]): Active
- inhibition (RAW264.7 [2]): Active
- inhibition (RAW264.7 [3]): Active
- inhibition (RAW264.7 [4]): Active

Structure (SMILES): COc1cc2ccc(=O)[nH]c2cc1O
- fold change (FC) (RAW264.7 [5]): 3.4
- fold change (FC) (RAW264.7 [6]): 1.29
- fold change (FC) (Mus musculus [7]): 1.05
- inhibition (RAW264.7 [8]): Dose-dependent effect
- inhibition (RAW264.7 [9]): Active
- inhibition (RAW264.7 [10]): Active
- fold change (FC) (RAW264.7 [11]): 1.56
- fold change (FC) (Mus musculus [12]): 1.11
- inhibition (RAW264.7 [13]): Active
- fold change (FC) (RAW264.7 [14]): 0.3
- fold change (FC) (RAW264.7 [15]): 0.64
- fold change (FC) (RAW264.7 [16]): 1.04
- fold change (FC) (RAW264.7 [17]): 1
- inhibition (RAW264.7 [18]): Active
- inhibition (RAW264.7 [19]): Active
- fold change (FC) (RAW264.7 [20]): 1
- fold change (FC) (RAW264.7 [21]): 0.99
- inhibition (RAW264.7 [22]): Active
- fold change (FC) (Mus musculus [23]): 1.86
- fold change (FC) (RAW264.7 [24]): 0.95
- Activity (RAW264.7 [25]): Non-Toxic
- fold change (FC) (RAW264.7 [26]): 1.02
- inhibition (RAW264.7 [27]): Active
- inhibition (RAW264.7 [28]): Dose-dependent effect
- fold change (FC) (RAW264.7 [29]): 0.91
- inhibition (RAW264.7 [30]): Active
- fold change (FC) (RAW264.7 [31]): 0.96
- fold change (FC) (RAW264.7 [32]): 0.94
- fold change (FC) (RAW264.7 [33]): 0.96
- fold change (FC) (RAW264.7 [34]): 5.25
- fold change (FC) (RAW264.7 [35]): 0.85
- fold change (FC) (RAW264.7 [36]): 1.72
- fold change (FC) (RAW264.7 [37]): 1.01
- inhibition (RAW264.7 [38]): Active
- inhibition (RAW264.7 [39]): Active
- fold change (FC) (RAW264.7 [40]): 0.93
- fold change (FC) (RAW264.7 [41]): 0.97
- fold change (FC) (RAW264.7 [42]): 0.96
- fold change (FC) (RAW264.7 [43]): 3.89
- fold change (FC) (RAW264.7 [44]): 1.98
- inhibition (RAW264.7 [45]): Active
